Measured values from ChEMBL document CHEMBL3872236, “Discovery of 2-((2-chloro-6-fluorophenyl)amino)-N-(3-fluoro-5-(trifluoromethyl)phenyl)-1-methyl-7,8-dihydro-1H-[1,4]dioxino[2',3':3,4]benzo[1,2-d]imidazole-5-carboxamide as potent, selective and efficacious microsomal prostaglandin E2 synthase-1 (mPGES-1) inhibitor” (Bioorg Med Chem Lett, 2016).

How the values were obtained:
in vitro [1] = settings: guinea pig, liver microsomes
in vitro [2] = settings: human, liver microsomes
in vitro [3] = settings: rat, liver microsomes

## O=C(Nc1cc(F)cc(C(F)(F)F)c1)c1cc2nc(Nc3c(F)cccc3Cl)[nH]c2c2c1OCCO2
In vitro [1]
  remaining at 1 h, 1 µM: 95.8%
In vitro [2]
  remaining at 1 h, 1 µM: 98.2%
In vitro [3]
  remaining at 1 h, 1 µM: 93.8%
